Assay results from ChEMBL document CHEMBL1140414, “Molecular modeling, synthesis, and preliminary biological evaluation of glutathione-S-transferase inhibitors as potential therapeutic agents” (J Med Chem, 2005).

Biological target: T1, Glutathione S-transferase P (Homo sapiens, UniProt P09211)
Experiment: Inhibition against glutathione S-transferase pi using GSH (0.1-3mM), 1 mM 1-chloro-2,4-dinitrobenzene

T1 sequence (P09211 whole entry): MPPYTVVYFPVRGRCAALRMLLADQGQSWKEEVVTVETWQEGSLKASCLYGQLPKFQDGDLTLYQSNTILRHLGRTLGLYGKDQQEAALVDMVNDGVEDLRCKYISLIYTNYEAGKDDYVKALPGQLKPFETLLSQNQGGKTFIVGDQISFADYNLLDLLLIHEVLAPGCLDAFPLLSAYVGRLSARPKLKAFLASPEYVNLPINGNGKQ

IC50 [µM]	Compound
5.5	NC(CCC(=O)NC(CSC(C(=O)O)c1ccccc1)C(=O)NCC(=O)O)C(=O)O (stereo not drawn)
9	NC(CCC(=O)NC(CSC(CO)c1ccccc1)C(=O)NCC(=O)O)C(=O)O (stereo not drawn)
4.7	NC(CCC(=O)NC(CSCC(O)c1ccccc1)C(=O)NCC(=O)O)C(=O)O (stereo not drawn)
280	NC(CCC(=O)NC(CSCCO)C(=O)NCC(=O)O)C(=O)O (stereo not drawn)

Biological target: T1, Glutathione S-transferase P
Experiment: Inhibition constant against glutathione S-transferase pi using GSH (0.1-3mM), 1 mM 1-chloro-2,4-dinitrobenzene

Ki [µM]	Compound
0.66	NC(CCC(=O)NC(CSC(C(=O)O)c1ccccc1)C(=O)NCC(=O)O)C(=O)O (stereo not drawn)
1.11	NC(CCC(=O)NC(CSC(CO)c1ccccc1)C(=O)NCC(=O)O)C(=O)O (stereo not drawn)
0.49	NC(CCC(=O)NC(CSCC(O)c1ccccc1)C(=O)NCC(=O)O)C(=O)O (stereo not drawn)
187	NC(CCC(=O)NC(CSCCO)C(=O)NCC(=O)O)C(=O)O (stereo not drawn)
